The nature of this assay: Cytotoxicity against human H460 cells after 48 hrs by MTT assay. As to conditions: NCI-H460, 48 h. It counts as functional, cell-based. On the technique in general: Tetrazolium assays rely on reduction of a dye to a coloured formazan, in cell work by metabolically active cells.

A value given as a limit tells only on which side of the number the result lay.

In general, IC50 refers to the concentration at which inhibition is half-maximal. High values mean weaker potency in that assay, low ones greater potency in that assay. `CCC[C@H]1NC(=O)[C@H](C)NC(=O)[C@H](CC(C)C)N(C)C(=O)[C@H](Cc2ccccc2)NC(=O)[C@H](CCSC)NC(=O)[C@@H](Cc2ccccc2)N(C)C(=O)[C@@H](C(C)C)OC(=O)[C@H]1C` [PRECARRIEBOWMIDE] yielded a half-inhibitory concentration (IC50) above 10 µM.

The values are drawn from ChEMBL document CHEMBL2417360, “Parguerene and precarriebowmide, two classes of lipopeptides from the marine cyanobacterium Moorea producens” (J Nat Prod, 2013).
